This is an account of results in patent US10265327B2, “V1A antagonists to treat phase shift sleep disorders” (Hoffmann-La Roche Inc., priority 2013, dated 2019).

The test system of the test is C57BL/6J mice. Nature of the test: Jet-lag test: behavioural re-entrainment to 6 h phase advance of the LD cycle. The test is classed as in vivo, mouse. Particulars: for days to total behavioural re-entrainment after the 6 h phase shift: mean ± SEM, n=5. Here is the method: In all studies described below, male young-adult C57BL/6J mice (4 weeks old at the beginning of experiments) were used. Animals were exposed to a light-dark cycle (LD) 12:12 (lights on from 8 h to 20 h geographical time; light intensity at 200 lux; during dark period dim red light of 5 lux) in individual cages with food and water ad libitum and temperature (22±1° C.) and humidity (55%±5%) controlled. LD cycle was represented as zeitgeber times (ZT) where ZT0 represents the lights on and ZT12 lights off. When animals were exposed to constant darkness conditions (DD), circadian times (CT) were used as time point references, where CT12 corresponds to activity onset.
To evaluate the effects of the V1a antagonist trans-8-chloro-5-methyl-1-(4-pyridin-2-yloxycyclohexyl)-4,6-dihydro-[1,2,4]triazolo[4,3-a][1,4]benzodiazepine on light synchronization of behavioural circadian rhythms, a jet-lag protocol of 6 h phase shift was used. After being under a LD cycle 12 h/12 h (for at least 10 days), mice were exposed to a 6 -h phase advance of the light-dark cycle (first “jet-lag” test, advance shift) and to the administration of vehicle or 30 mg/kg of the V1a antagonist trans-8-chloro-5-methyl-1-(4-pyridin-2-yloxycyclohexyl)-4,6-dihydro-[1,2,4]triazolo[4,3-a][1,4]benzodiazepine. On the day of the shift, the time of lights off was phase-advanced by 6 h. Here we used three groups of animals: a sham group (Group 1, n=3), animals in which the cannula was introduced in the oral cavity without any solution delivery; a vehicle group (Group 2, n=4), which received vehicle, and a 30 mg/kg trans-8-chloro-5-methyl-1-(4-pyridin-2-yloxycyclohexyl)-4,6-dihydro-[1,2,4]triazolo[4,3-a][1,4]benzodiazepine group (Group 3, n=5). All manipulations were at ZT6 (6 h after lights on) on the last LD cycle before the 6 h phase advance.
In a second experiment, using naive animals, a second jet-lag test was evaluated. Thus, using a new group of male mice, the effects of 30 mg/kg trans-8-chloro-5-methyl-1-(4-pyridin-2-yloxycyclohexyl)-4,6-dihydro-[1,2,4]triazolo[4,3-a][1,4]benzodiazepine on the re-synchronization to a 6 h phase advance of the LD cycle were tested. Animals under a LD cycle 12 h/12 h (for at least 10 days) were exposed to a phase advance of 6 h of the LD cycle and to the administration of vehicle or 30 mg/kg of the V1a antagonist trans-8-chloro-5-methyl-1-(4-pyridin-2-yloxycyclohexyl)-4,6-dihydro-[1,2,4]triazolo[4,3 -a][1,4]benzodiazepine at ZT/CT6. Similarly to the previous experiment, three groups of animals were used: a sham group (Group 1, n=3), animals in which the cannula was introduced in the oral cavity without any solution delivery; a vehicle group (Group 2, n=4) which received vehicle, and a 30 mg/kg trans-8-chloro-5-methyl-1 -(4-pyridin-2-yloxycyclohexyl)-4,6-dihydro-[1,2,4]triazolo[4,3 -a][1,4]benzodiazepine group (Group 3, n=5).
The locomotor activity rhythms were measured using infra-red detectors on the top of the cages and/or running wheels.
Re-entrainment (jet-lag tests): For 6 h phase-shift (jet-lag protocol) the number of days after the shift for total re-entrainment was quantified, considering both the onset and offset of activity. The onsets and offsets of activity were identified automatically using ClockLab software. Thus, full resynchronization to a new LD cycle, after 6-hour phase shifts of the time of lights off, was considered when activity onset took place at the new time of lights off ±30 minutes. The number of days (transitory cycles) required to re-synchronize was calculated for each mouse. The speed of re-entrainment was evaluated calculating the onset of activity and the advance of it, in hours, daily. To evaluate the effects of manipulations on locomotion, the locomotor activity changes from 0 to 6 h after each treatment were quantified in 30 min intervals (see activity profiles determination).
Values in all experiments are means ±SEM. […]

“Also recorded” adds a separate entry of the source.

As to `CN1Cc2cc(Cl)ccc2-n2c(nnc2[C@H]2CC[C@H](Oc3ccccn3)CC2)C1` [Example 1, trans-8-chloro-5-methyl-1-(4-pyridin-2-yloxycyclohexyl)-4,6-dihydro-[1,2,4]triazolo[4,3-a][1,4]benzodiazepine], where the note is “both jet-lag experiments, 30 mg/kg”, the “re-entrainment of the circadian clock to a new LD cycle (overall conclusion)” value is recorded as “accelerates the re-entrainment”. For the same compound, for the setting “jet-lag test 1, 30 mg/kg at ZT6, 0 to 6 h after treatment”, the “locomotor activity induced by manipulations” value is “not significantly different between groups”. Besides, the “daily adjustment of onset of activity to the LD cycle (speed of re-entrainment)” value was “much more rapid daily adjustment; also recorded: significantly faster re-entrainment” (jet-lag test 1, 30 mg/kg at ZT6, first 5 days after the shift, 30 mg/kg) and “much more rapid daily adjustment; also recorded: significantly faster re-entrainment” (second jet-lag test, naive mice, 30 mg/kg at ZT/CT6, first 4 days after the shift, 30 mg/kg). Moreover, the “days to total behavioural re-entrainment after the 6 h phase shift” value reads like this: (jet-lag test 1, 30 mg/kg oral at ZT6) 3.2 ± 0.33 days; (second jet-lag test, naive mice, 30 mg/kg oral at ZT/CT6) 3.4 ± 0.24 days. The “increase in locomotion induced by manipulations” value (second jet-lag test, naive mice, 30 mg/kg at ZT/CT6) is recorded as “not significantly different between groups”.
